Measurements as given in PubChem BioAssay (NCI).
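GI50 marks 50% less growth. TGI marks complete inhibition of growth.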

Key:
Assay in all cases: NCI-60 cell line screen, 384-well format
[1] = test system: UO-31 renal
[2] = test system: MDA-MB-231 breast
[3] = test system: OVCAR-8 ovarian
[4] = test system: SNB-19 CNS
[5] = test system: NCI-H460 NSCLC
[6] = test system: KM12 colon
[7] = test system: HOP-62 NSCLC
[8] = test system: MCF7 breast
[9] = test system: MDA-MB-435 melanoma
[10] = test system: LOX IMVI melanoma
[11] = test system: M14 melanoma
[12] = test system: HL-60(TB) leukemia
[13] = test system: SK-OV-3 ovarian
[14] = test system: A549 NSCLC
[15] = test system: BT-549 breast
[16] = test system: SR leukemia
[17] = test system: ACHN renal
[18] = test system: COLO 205 colon
[19] = test system: MALME-3M melanoma
[20] = test system: HS 578T breast
[21] = test system: SF-268 CNS
[22] = test system: IGROV1 ovarian
[23] = test system: DU-145 prostate
[24] = test system: HCT-116 colon
[25] = test system: SN12C renal
[26] = test system: SK-MEL-5 melanoma
[27] = test system: UACC-62 melanoma
[28] = test system: NCI-H226 lung
[29] = test system: SK-MEL-28 melanoma
[30] = test system: EKVX NSCLC
[31] = test system: SF-295 CNS
[32] = test system: HT29 colon
[33] = test system: PC-3 prostate
[34] = test system: OVCAR-4 ovarian
[35] = test system: CAKI-1 renal
[36] = test system: NCI-H322M lung
[37] = test system: SF-539 CNS
[38] = test system: NCI-H522 lung
[39] = test system: CCRF-CEM leukemia
[40] = test system: UACC-257 melanoma
[41] = test system: SW-620 colon
[42] = test system: RXF 393 renal
[43] = test system: 786-0 renal
[44] = test system: NCI/ADR-RES ovarian
[45] = test system: TK-10 renal
[46] = test system: U251 glioblastoma
[47] = test system: A498 renal
[48] = test system: HOP-92 NSCLC
[49] = test system: K-562 leukemia
[50] = test system: T-47D breast
[51] = test system: OVCAR-3 ovarian
[52] = test system: MDA-MB-468 breast
[53] = test system: NCI-H23 lung
[54] = test system: HCC-2998 colon
[55] = test system: SNB-75 CNS
[56] = test system: MOLT-4 leukemia
[57] = test system: RPMI-8226 leukemia
[58] = test system: HCT-15 colon

**Q.** Which results are given for `C=CC(=O)Nc1cccc(Nc2nc(Nc3ccc(OCCOC)cc3)ncc2F)c1`?
**A.** GI50 [1]: 1.17 µM; TGI [1]: 3.39 µM; GI50 [2]: 2.3 µM; TGI [2]: 14.7 µM; GI50 [3]: 2.51 µM; TGI [3]: 8.72 µM; GI50 [4]: 4.01 µM; TGI [4]: 14.6 µM; GI50 [5]: 2.02 µM; TGI [5]: 10.3 µM; GI50 [6]: 3.53 µM; TGI [6]: 14.3 µM; GI50 [7]: 2.9 µM; TGI [7]: 11.1 µM; GI50 [8]: 3.1 µM; TGI [8]: 14.8 µM; GI50 [9]: 5.33 µM; TGI [9]: 17.6 µM; GI50 [10]: 2.19 µM; TGI [10]: 6.05 µM; GI50 [11]: 1.71 µM; TGI [11]: 14.7 µM; GI50 [12]: 1.21 µM; TGI [12]: 2.64 µM; GI50 [13]: 0.755 µM; TGI [13]: 3.02 µM; GI50 [14]: 2.88 µM; TGI [14]: 11.2 µM; GI50 [15]: 0.802 µM; TGI [15]: 2.84 µM; GI50 [16]: 0.933 µM; TGI [16]: 2.66 µM; GI50 [17]: 1.01 µM; TGI [17]: 3.51 µM; GI50 [18]: 5.33 µM; TGI [18]: 16.7 µM; GI50 [19]: 3.64 µM; TGI [19]: 16.8 µM; GI50 [20]: 1.05 µM; TGI [20]: 2.85 µM; GI50 [21]: 2.34 µM; TGI [21]: 10.5 µM; GI50 [22]: 1 µM; TGI [22]: 2.28 µM; GI50 [23]: 2.21 µM; TGI [23]: 13.5 µM; GI50 [24]: 2.5 µM; TGI [24]: 12.7 µM; GI50 [25]: 1.28 µM; TGI [25]: 4.07 µM; GI50 [26]: 4.78 µM; TGI [26]: 18 µM; GI50 [27]: 1.52 µM; TGI [27]: 12.8 µM; GI50 [28]: 1 µM; TGI [28]: 5.79 µM; GI50 [29]: 9.82 µM; TGI [29]: 21.6 µM; GI50 [30]: 2.06 µM; TGI [30]: 9.06 µM; GI50 [31]: 4.9 µM; TGI [31]: 17.1 µM; GI50 [32]: 2.98 µM; TGI [32]: 11.6 µM; GI50 [33]: 2.81 µM; TGI [33]: 12.6 µM; GI50 [34]: 10.3 µM; TGI [34]: 22.1 µM; GI50 [35]: 0.602 µM; TGI [35]: 2.08 µM; GI50 [36]: 1.63 µM; TGI [36]: 8.82 µM; GI50 [37]: 1.48 µM; TGI [37]: 3.26 µM; GI50 [38]: 1.48 µM; TGI [38]: 4.37 µM; GI50 [39]: 1.62 µM; TGI [39]: 3.39 µM; GI50 [40]: 6.67 µM; TGI [40]: 19.3 µM; GI50 [41]: 1.84 µM; TGI [41]: 4.16 µM; GI50 [42]: 0.867 µM; TGI [42]: 3.26 µM; GI50 [43]: 1.68 µM; TGI [43]: 6.51 µM; GI50 [44]: 2.44 µM; TGI [44]: 6.32 µM; GI50 [45]: 1.31 µM; TGI [45]: 3.09 µM; GI50 [46]: 2.86 µM; TGI [46]: 13.1 µM; GI50 [47]: 0.493 µM; TGI [47]: 1.93 µM; GI50 [48]: 1.82 µM; TGI [48]: 9.64 µM; GI50 [49]: 3.73 µM; TGI [49]: 13.6 µM; GI50 [50]: 2.49 µM; TGI [50]: 13.9 µM; GI50 [51]: 1.22 µM; TGI [51]: 4.74 µM; GI50 [52]: 0.562 µM; TGI [52]: 1.76 µM; GI50 [53]: 2.42 µM; TGI [53]: 12.9 µM; GI50 [54]: 2.55 µM; TGI [54]: 13.7 µM; GI50 [55]: 1.1 µM; TGI [55]: 2.82 µM; GI50 [56]: 1.47 µM; TGI [56]: 2.84 µM; GI50 [57]: 1.01 µM; TGI [57]: 2.99 µM; GI50 [58]: 1.97 µM; TGI [58]: 12.9 µM
